The source of these data is patent US20170349593A1, “BTK INHIBITORS” (MERCK SHARP & DOHME CORP., priority 2014, published 2017).

SMILES strings stand for the structures.

Test [1] concerns adenosine uptake into HeLa cells. The experiment in a line: [3H]Adenosine uptake assay. The format is cell-based. As to conditions: Homo sapiens; accumulation of [3H]adenosine into HeLa cells; concentration range 10 μM to 0.032 nM; read-out: ADU inhibition IC50. In short, it runs like this: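 HeLa cells (25 000/well), plated overnight, were preincubated 30 minutes at ambient temperature with compound in HBSS + 5% FBS. Ten-point titrations ran from 10 μM to 0.032 nM final. [3H]adenosine was added from a 500 nM solution for 60 minutes, and uptake was measured by scintillation proximity counting; IC50 came from a 4-parameter fit.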

Test [2] deals with T1, BTK enzyme (recombinant full-length BTK, hBTK) (Homo sapiens, UniProt Q06187).
T1 construct: recombinant protein from baculovirus-transfected S 19 cells: full-length BTK, 6 HIS-tag cleaved; 6 HIS-tag (cleaved yes); made in house
The experiment in a line: Btk enzyme activity assay (LANCE TR-FRET). In kind it is biochemical. As to conditions: 50 pM hBTK, 25 μM ATP, 60 minute compound and enzyme incubation, concentration range 1 μM to 0.017 nM, read-out: BTK binding IC50.

T1 sequence (Q06187 whole entry): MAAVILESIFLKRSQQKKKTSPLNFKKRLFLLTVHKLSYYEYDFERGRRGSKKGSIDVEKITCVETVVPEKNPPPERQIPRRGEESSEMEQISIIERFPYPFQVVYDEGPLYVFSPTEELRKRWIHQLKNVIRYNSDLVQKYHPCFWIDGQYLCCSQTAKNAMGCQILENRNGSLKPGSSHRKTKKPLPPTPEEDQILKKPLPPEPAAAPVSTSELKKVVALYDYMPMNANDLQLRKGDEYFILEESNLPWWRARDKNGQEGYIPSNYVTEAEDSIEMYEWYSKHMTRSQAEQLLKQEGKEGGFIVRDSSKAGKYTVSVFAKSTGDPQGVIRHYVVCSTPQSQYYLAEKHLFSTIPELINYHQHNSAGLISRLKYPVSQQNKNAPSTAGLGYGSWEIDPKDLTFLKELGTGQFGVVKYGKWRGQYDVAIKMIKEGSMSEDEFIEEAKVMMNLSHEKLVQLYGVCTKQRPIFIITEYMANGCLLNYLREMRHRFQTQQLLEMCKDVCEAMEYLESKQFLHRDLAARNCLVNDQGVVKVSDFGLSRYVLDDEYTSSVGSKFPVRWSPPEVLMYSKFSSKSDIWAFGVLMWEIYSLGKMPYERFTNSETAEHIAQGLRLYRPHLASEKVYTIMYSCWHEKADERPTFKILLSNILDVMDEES

Take `C[C@H](O)C(=O)N1C[C@H](c2nc(-c3ccc(C(=O)Nc4cc(C(F)(F)F)ccn4)cc3F)c3c(N)nccn23)OC[C@H]1C` [Example 68, 4-(8-amino-3-{(2R,5R)-4-[(2S)-2-hydroxypropanoyl]-5-methylmorpholin-2-yl}imidazo[1,5-a]pyrazin-1-yl)-3-fluoro-N-[4-(trifluoromethyl)pyridin-2-yl]benzamide]: the IC50 – broadly, the concentration needed to halve the response being measured – in test [1] came out at 0.0766 µM; in test [2] it was 0.00302 µM.

For `C[C@@H]1CO[C@@H](c2nc(-c3ccc(C(=O)Nc4cc(C(F)(F)F)ccn4)cc3F)c3c(N)nccn23)CN1C(=O)C1(C)CC1` [Example 69, 4-(8-amino-3-{(2R,5R)-5-methyl-4-[(1-methylcyclopropyl)carbonyl]morpholin-2-yl}imidazo[1,5-a]pyrazin-1-yl)-3-fluoro-N-[4-(trifluoromethyl)pyridin-2-yl]benzamide], the IC50 worked out at 0.139 µM in test [1] and 0.0109 µM in test [2].

Turning to `COCC(=O)N1C[C@H](c2nc(-c3ccc(C(=O)Nc4cc(C(F)(F)F)ccn4)cc3F)c3c(N)nccn23)OC[C@H]1C` [Example 70, 4-{8-amino-3-[(2R,5R)-4-(methoxyacetyl)-5-methylmorpholin-2-yl]imidazo[1,5-a]pyrazin-1-yl}-3-fluoro-N-[4-(trifluoromethyl)pyridin-2-yl]benzamide], the IC50 in test [1] was found to be 0.135 µM; in test [2], 0.0138 µM.

For `CC(=O)N1C[C@H](c2nc(-c3ccc(C(=O)Nc4cc(C(F)(F)F)ccn4)cc3F)c3c(N)nccn23)OC[C@H]1C` [Example 71, 4-{3-[(2R,5R)-4-acetyl-5-methylmorpholin-2-yl]-8-aminoimidazo[1,5-a]pyrazin-1-yl}-3-fluoro-N-[4-(trifluoromethyl)pyridin-2-yl]benzamide], the IC50 in test [1] worked out at 0.11 µM; in test [2] it was 0.00663 µM.

For the compound `C[C@@H]1CO[C@@H](c2nc(-c3ccc(C(=O)Nc4cc(C(F)(F)F)ccn4)cc3F)c3c(N)nccn23)CN1Cc1cnn(C)c1` [Example 72, 4-(8-amino-3-{(2R,5R)-5-methyl-4-[(1-methyl-1H-pyrazol-4-yl)methyl]morpholin-2-yl}imidazo[1,5-a]pyrazin-1-yl)-3-fluoro-N-[4-(trifluoromethyl)pyridin-2-yl]benzamide], the IC50 in test [1] came out at 0.138 µM; in test [2], 0.00145 µM.

For the compound `C[C@@H]1CO[C@@H](c2nc(-c3ccc(C(=O)Nc4cc(C(F)(F)F)ccn4)cc3F)c3c(N)nccn23)CN1C1CCOCC1` [Example 73, 4-{8-amino-3-[(2R,5R)-5-methyl-4-(tetrahydro-2H-pyran-4-yl)morpholin-2-yl]imidazo[1,5-a]pyrazin-1-yl}-3-fluoro-N-[4-(trifluoromethyl)pyridin-2-yl]benzamide], the IC50 in test [1] stood at 0.122 µM; in test [2] it was 0.00267 µM.

Consider `C[C@H]1CO[C@@H](c2nc(-c3ccc(C(=O)Nc4cc(C(F)(F)F)ccn4)cc3F)c3c(N)nccn23)CN1Cc1cnn(C)c1` [Example 74, 4-(8-amino-3-{(2R,5S)-5-methyl-4-[(1-methyl-1H-pyrazol-4-yl)methyl]morpholin-2-yl}imidazo[1,5-a]pyrazin-1-yl)-3-fluoro-N-[4-(trifluoromethyl)pyridin-2-yl]benzamide], for which the IC50 in test [1] amounted to 0.224 µM; in test [2], 0.00047 µM.

As for `C[C@H]1CO[C@@H](c2nc(-c3ccc(C(=O)Nc4cc(C(F)(F)F)ccn4)cc3F)c3c(N)nccn23)CN1C1CCOCC1` [Example 75, 4-{8-amino-3-[(2R,5S)-5-methyl-4-(tetrahydro-2H-pyran-4-yl)morpholin-2-yl]imidazo[1,5-a]pyrazin-1-yl}-3-fluoro-N-[4-(trifluoromethyl)pyridin-2-yl]benzamide], the IC50 in test [1] was 0.35 µM; in test [2], 0.000329 µM.

In the case of `C[C@H]1CO[C@@H](c2nc(-c3ccc(C(=O)Nc4cc(C(F)(F)F)ccn4)cc3F)c3c(N)nccn23)CN1C1COC1` [Example 76, 4-{8-amino-3-[(2R,5S)-5-methyl-4-oxetan-3-ylmorpholin-2-yl]imidazo[1,5-a]pyrazin-1-yl}-3-fluoro-N-[4-(trifluoromethyl)pyridin-2-yl]benzamide], the results for the IC50 in test [1] and in test [2] were 0.237 µM and 0.000531 µM, respectively.

As to `C[C@H]1CO[C@@H](c2nc(-c3ccc(C(=O)Nc4cc(C(F)(F)F)ccn4)cc3F)c3c(N)nccn23)CN1C(=O)C1(C)COC1` [Example 77, 4-(8-amino-3-{(2R,5S)-5-methyl-4-[(3-methyloxetan-3-yl)carbonyl]morpholin-2-yl}imidazo[1,5-a]pyrazin-1-yl)-3-fluoro-N-[4-(trifluoromethyl)pyridin-2-yl]benzamide], the IC50 worked out at 0.239 µM in test [1] and 0.00044 µM in test [2].

For `COCC(=O)N1C[C@H](c2nc(-c3ccc(C(=O)Nc4cc(C(F)(F)F)ccn4)cc3)c3c(N)nccn23)OC[C@@H]1C` [Example 78, 4-{8-amino-3-[(2R,5S)-4-(methoxyacetyl)-5-methylmorpholin-2-yl]imidazo[1,5-a]pyrazin-1-yl}-N-[4-(trifluoromethyl)pyridin-2-yl]benzamide], the IC50 in test [1] was 0.26 µM; in test [2], 0.000738 µM.

Regarding `CO[C@H](C)C(=O)N1C[C@H](c2nc(-c3ccc(C(=O)Nc4cc(C(F)(F)F)ccn4)cc3F)c3c(N)nccn23)OC[C@@H]1C` [Example 79, 4-(8-amino-3-{(2R,5S)-4-[(2R)-2-methoxypropanoyl]-5-methylmorpholin-2-yl}imidazo[1,5-a]pyrazin-1-yl)-3-fluoro-N-[4-(trifluoromethyl)pyridin-2-yl]benzamide], the IC50 in test [1] worked out at 0.288 µM; in test [2] it was 0.000423 µM.

`C[C@H](O)C(=O)N1C[C@H](c2nc(-c3ccc(C(=O)Nc4cc(C(F)(F)F)ccn4)cc3)c3c(N)nccn23)OC[C@@H]1C` [Example 80, 4-(8-amino-3-{(2R,5S)-4-[(2S)-2-hydroxypropanoyl]-5-methylmorpholin-2-yl}imidazo[1,5-a]pyrazin-1-yl)-N-[4-(trifluoromethyl)pyridin-2-yl]benzamide]: the IC50 in test [1] came to 0.188 µM; in test [2], 0.0004 µM.

As for `C[C@H]1CO[C@@H](c2nc(-c3ccc(C(=O)Nc4cc(C(F)(F)F)ccn4)cc3)c3c(N)nccn23)CN1C(=O)C1(C)CC1` [Example 81, 4-(8-amino-3-{(2R,5S)-5-methyl-4-[(1-methylcyclopropyl)carbonyl]morpholin-2-yl}imidazo[1,5-a]pyrazin-1-yl)-N-[4-(trifluoromethyl)pyridin-2-yl]benzamide], the IC50 in test [1] turned out to be 0.107 µM; in test [2], 0.00051 µM.

`CC(C)C(=O)N1C[C@H](c2nc(-c3ccc(C(=O)Nc4cc(C(F)(F)F)ccn4)cc3)c3c(N)nccn23)OC[C@@H]1C` [Example 82, 4-{8-amino-3-[(2R,5S)-5-methyl-4-(2-methylpropanoyl)morpholin-2-yl]imidazo[1,5-a]pyrazin-1-yl}-N-[4-(trifluoromethyl)pyridin-2-yl]benzamide]: the results for the IC50 in test [1] and in test [2] were 0.262 µM and 0.000546 µM, respectively.

Regarding `CC(=O)N1C[C@H](c2nc(-c3ccc(C(=O)Nc4cc(C(F)(F)F)ccn4)cc3)c3c(N)nccn23)OC[C@@H]1C` [Example 83, 4-{3-[(2R,5S)-4-acetyl-5-methylmorpholin-2-yl]-8-aminoimidazo[1,5-a]pyrazin-1-yl}-N-[4-(trifluoromethyl)pyridin-2-yl]benzamide], the IC50 in test [1] amounted to 0.189 µM; in test [2], 0.000363 µM.

Take `C[C@H](O)C(=O)N1C[C@H](c2nc(-c3ccc(C(=O)Nc4cc(C(F)(F)F)ccn4)cc3F)c3c(N)nccn23)OC[C@@H]1C` [Example 84, 4-(8-amino-3-{(2R,5S)-4-[(2S)-2-hydroxypropanoyl]-5-methylmorpholin-2-yl}imidazo[1,5-a]pyrazin-1-yl)-3-fluoro-N-[4-(trifluoromethyl)pyridin-2-yl]benzamide]: the IC50 in test [1] stood at 0.36 µM; in test [2], 0.000368 µM.

With `C[C@H]1CO[C@@H](c2nc(-c3ccc(C(=O)Nc4cc(C(F)(F)F)ccn4)cc3F)c3c(N)nccn23)CN1C(=O)C1(C)CC1` [Example 85, 4-(8-amino-3-{(2R,5S)-5-methyl-4-[(1-methylcyclopropyl)carbonyl]morpholin-2-yl}imidazo[1,5-a]pyrazin-1-yl)-3-fluoro-N-[4-(trifluoromethyl)pyridin-2-yl]benzamide], the IC50 in test [1] amounted to 0.189 µM; in test [2] it was 0.000548 µM.

Turning to `CC(C)C(=O)N1C[C@H](c2nc(-c3ccc(C(=O)Nc4cc(C(F)(F)F)ccn4)cc3F)c3c(N)nccn23)OC[C@@H]1C` [Example 87, 4-{8-amino-3-[(2R,5S)-5-methyl-4-(2-methylpropanoyl)morpholin-2-yl]imidazo[1,5-a]pyrazin-1-yl}-3-fluoro-N-[4-(trifluoromethyl)pyridin-2-yl]benzamide], the results for the IC50 in test [1] and in test [2] were 0.141 µM and 0.000738 µM, respectively.

For the compound `CC(=O)N1C[C@H](c2nc(-c3ccc(C(=O)Nc4cc(C(F)(F)F)ccn4)cc3F)c3c(N)nccn23)OC[C@@H]1C` [Example 88, 4-{3-[(2R,5S)-4-acetyl-5-methylmorpholin-2-yl]-8-aminoimidazo[1,5-a]pyrazin-1-yl}-3-fluoro-N-[4-(trifluoromethyl)pyridin-2-yl]benzamide], the figures for the IC50 in test [1] and in test [2] were 0.215 µM and 0.000343 µM, respectively.

`C[C@H]1CC[C@@H](c2nc(-c3ccc(C(=O)Nc4cc(C#N)ccn4)cc3)c3c(N)nccn23)CN1C(=O)C1CC1` [Example 89, 4-{8-amino-3-[(3R,6S)-1-(cyclopropylcarbonyl)-6-methylpiperidin-3-yl]imidazo[1,5-a]pyrazin-1-yl}-N-(4-cyanopyridin-2-yl)benzamide]: the IC50 in test [1] was 0.0475 µM; in test [2], 0.000297 µM.
